Experimental data as given in patent US10561638B2, “Methods for treating dependence” (Biotie Therapies, Inc., priority 2007, dated 2020).

Assays:
[1] = tested on: thyroid uptake of 123I; test: Thyroid uptake of 123I in humans; type: in vivo, human
[2] = tested on: tissue norepinephrine and dopamine levels; test: Tissue catecholamines in SHRs after single dose (dose response, time course); type: in vivo, spontaneously hypertensive rats; details: for dose with significant change in dopamine/norepinephrine ratio: 6 h after single oral dose
Description: Significant changes in these parameters were also observed in the left ventricle of male Sprague-Dawley rats 6 hours after the second of two i.v. injections (15 mg/kg) given 12 hours apart. The 24 hour time course of tissue catecholamines was studied in male SHRs following oral administration of either 10 or 30 mg/kg, respectively. The increase in the dopamine/norepinephrine ratio was significant at 1 hour, and was long lasting (12 hours at 10 mg/kg, mesenteric artery, and 24 hours at 30 mg/kg, left ventricle).
In SHRs there were significant changes in the dopamine/norepinephrine ratio in the mesenteric artery at doses of 0.3 mg/kg, in the left ventricle at 3.0 mg/kg, and in the cerebral cortex at 10 mg/kg. […] In a second dose-response study in SHRs, three doses were administered 12 hours apart at either 3.0, 10, 30, or 100 mg/kg, and tissue was harvested six hours after the third dose. Nepicastat caused a significant dose dependent decrease in norepinephrine (10 mg/kg) and increase in dopamine (3.0 mg/kg) and the dopamine/norepinephrine ratio (3.0 mg/kg) in the left ventricle and mesenteric artery. The effects of nepicastat on dopamine and norepinephrine concentrations, and the dopamine/norepinephrine ratio in the cerebral cortex were significant only at 30 and 100 mg/kg.
The purpose of this study was to determine the 24 hours time course of the effects of nepicastat (10 mg/kg) on dopamine and norepinephrine levels in the mesenteric artery following a single oral dose in spontaneously hypertensive rats. Catecholamine levels were measured at 1, 2, 4, 6, 8, 12, 16, and 24 hours after a single oral administration of either nepicastat (10 mg/kg) or vehicle (dH2O; 10 ml/kg).
Sixteen-17 week old, male spontaneous hypertensive rats (SHRs) weighing 300-400 grams were allowed food and water ad libitum. Animals were weighed and randomly assigned, the afternoon before the study, to one of the following treatment groups (n=9 per group): a single oral administration of nepicastat at 10 mg/kg or a single oral administration of vehicle (10 ml/kg) to be sacrificed at 1, 2, 4, 6, 8, 12, 16, or 24 hours.
Animals were dosed […] the morning of sacrifice. At 1, 2, 4, 6, 8, 12, 16 and 24 hours following administration, 9 treated animals and 9 vehicle animals were anesthetized with halothane, decapitated, and the left ventricle and mesenteric artery were rapidly harvested and weighed. The mesenteric artery was put in 0.5 ml of 0.4M perchloric acid in a centrifuge tube and the left ventricle put into an empty cryotube. Both tissues were immediately frozen in liquid nitrogen and stored at −70° C. Mesenteric artery catecholamine levels were determined using HPLC with electrochemical detection. At the time of decapitation, plasma samples were taken by draining blood from the carcass into a tube containing heparin, and centrifuging at 4° C.
Each treatment group was compared to vehicle at each time point. A two way analysis of variance (ANOVA) with effects TRT, HARVEST and their interaction was performed. A one way ANOVA with factor TRT was performed for each harvest time. Pairwise analyses between treated and vehicle animals, at each time point, were carried out using Fisher's LSD strategy to control the experiment-wise error rate. […] Levels were marginally (0.05<p<0.1) lower at the 6 hour time point.

[3] = target: D2 dopamine receptors (Homo sapiens, UniProt P14416); test: Radioligand binding assay
D2 dopamine receptors, sequence (P14416 whole entry): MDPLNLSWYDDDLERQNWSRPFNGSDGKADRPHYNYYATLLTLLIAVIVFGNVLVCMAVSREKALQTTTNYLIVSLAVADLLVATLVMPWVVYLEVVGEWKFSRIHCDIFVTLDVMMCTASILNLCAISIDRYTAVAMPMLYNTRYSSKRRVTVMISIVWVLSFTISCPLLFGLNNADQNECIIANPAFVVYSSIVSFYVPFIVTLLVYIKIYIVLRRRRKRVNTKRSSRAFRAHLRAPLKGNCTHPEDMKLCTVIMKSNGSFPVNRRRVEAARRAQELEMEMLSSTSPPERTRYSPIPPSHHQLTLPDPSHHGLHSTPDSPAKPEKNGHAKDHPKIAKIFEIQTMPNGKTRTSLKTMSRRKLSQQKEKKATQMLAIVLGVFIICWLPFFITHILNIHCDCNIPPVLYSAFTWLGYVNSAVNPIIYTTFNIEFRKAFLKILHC
Description: (§1) The activity of nepicastat at twelve selected enzymes and receptors was determined using established assays. Binding data were analyzed by iterative curve-fitting to a four parameter logistic equation. Ki values were calculated from IC50 values using the Cheng-Prusoff equation. Enzyme inhibitory activity was expressed as IC50 (concentration required to produce 50% inhibition of enzyme activity).
(§2) The activity of nepicastat at eleven different enzymes was determined using established assays. The affinity of nepicastat for thirteen selected receptors was determined by radioligand binding assays using standard filtration techniques and membrane preparations. Binding data were analyzed by iterative curve fitting to a four parameter logistic equation. Ki values were calculated using the Cheng-Prusoff equation.
(§3) The binding affinity for nepicastat was screened at selected receptors. […] Thus nepicastat and its primary metabolite were not potent inhibitors for the receptors listed above.

[4] = target: 5-HT1A serotonin receptors (Homo sapiens, UniProt P08908); test: Radioligand binding assay
5-HT1A serotonin receptors, sequence (P08908 whole entry): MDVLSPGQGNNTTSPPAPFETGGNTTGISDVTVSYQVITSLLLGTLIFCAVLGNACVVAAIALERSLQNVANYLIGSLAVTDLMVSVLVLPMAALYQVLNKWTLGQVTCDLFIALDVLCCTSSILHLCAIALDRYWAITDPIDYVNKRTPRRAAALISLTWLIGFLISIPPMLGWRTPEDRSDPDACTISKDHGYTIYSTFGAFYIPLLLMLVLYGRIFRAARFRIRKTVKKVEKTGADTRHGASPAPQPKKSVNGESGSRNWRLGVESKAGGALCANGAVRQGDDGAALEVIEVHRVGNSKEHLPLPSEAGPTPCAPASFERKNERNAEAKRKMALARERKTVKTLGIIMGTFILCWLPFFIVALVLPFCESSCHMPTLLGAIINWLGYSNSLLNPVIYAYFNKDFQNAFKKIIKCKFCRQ
Description: as §1, §2, §3

[5] = target: D1 dopamine receptors (Homo sapiens, UniProt P21728); test: Radioligand binding assay
D1 dopamine receptors, sequence (P21728 whole entry): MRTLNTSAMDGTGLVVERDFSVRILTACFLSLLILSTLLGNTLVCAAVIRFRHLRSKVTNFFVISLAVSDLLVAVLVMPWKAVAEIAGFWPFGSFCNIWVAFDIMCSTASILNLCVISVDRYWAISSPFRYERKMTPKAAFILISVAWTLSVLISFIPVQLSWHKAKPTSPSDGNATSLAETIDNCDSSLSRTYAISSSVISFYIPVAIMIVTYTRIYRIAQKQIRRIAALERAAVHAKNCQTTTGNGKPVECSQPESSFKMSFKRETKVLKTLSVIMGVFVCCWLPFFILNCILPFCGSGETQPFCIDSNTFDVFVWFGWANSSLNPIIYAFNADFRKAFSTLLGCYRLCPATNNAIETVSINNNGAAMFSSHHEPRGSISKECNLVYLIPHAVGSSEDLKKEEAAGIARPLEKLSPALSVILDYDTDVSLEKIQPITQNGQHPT
Description: as §1, §2, §3

[6] = target: 5-HT2A serotonin receptors (Homo sapiens, UniProt P28223); test: Radioligand binding assay
5-HT2A serotonin receptors, sequence (P28223 whole entry): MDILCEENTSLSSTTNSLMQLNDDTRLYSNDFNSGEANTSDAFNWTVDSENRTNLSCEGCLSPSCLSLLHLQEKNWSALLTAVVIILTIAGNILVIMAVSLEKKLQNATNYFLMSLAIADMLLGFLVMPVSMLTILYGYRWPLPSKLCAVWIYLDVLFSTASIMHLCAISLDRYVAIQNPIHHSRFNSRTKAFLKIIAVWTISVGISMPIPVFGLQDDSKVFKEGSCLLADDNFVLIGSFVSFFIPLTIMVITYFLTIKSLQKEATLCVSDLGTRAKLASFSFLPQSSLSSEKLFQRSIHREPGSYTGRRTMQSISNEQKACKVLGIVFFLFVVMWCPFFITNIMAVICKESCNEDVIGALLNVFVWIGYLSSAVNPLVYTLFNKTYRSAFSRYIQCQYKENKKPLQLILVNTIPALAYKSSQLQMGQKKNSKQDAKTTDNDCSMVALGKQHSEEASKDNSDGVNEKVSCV
Description: as §1, §2, §3

[7] = target: 5-HT2C serotonin receptors (Homo sapiens, UniProt P28335); test: Radioligand binding assay
5-HT2C serotonin receptors, sequence (P28335 33-458): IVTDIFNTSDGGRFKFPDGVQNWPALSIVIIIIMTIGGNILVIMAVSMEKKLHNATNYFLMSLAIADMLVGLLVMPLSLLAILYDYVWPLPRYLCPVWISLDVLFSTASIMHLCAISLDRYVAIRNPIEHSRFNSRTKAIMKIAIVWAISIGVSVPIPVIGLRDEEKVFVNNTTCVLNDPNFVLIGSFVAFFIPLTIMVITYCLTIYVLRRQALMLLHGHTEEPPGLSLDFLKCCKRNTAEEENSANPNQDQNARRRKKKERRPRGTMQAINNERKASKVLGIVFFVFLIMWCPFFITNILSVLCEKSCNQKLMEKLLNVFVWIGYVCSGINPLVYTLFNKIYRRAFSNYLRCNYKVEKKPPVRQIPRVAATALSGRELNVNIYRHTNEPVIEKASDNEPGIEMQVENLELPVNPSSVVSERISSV
Description: as §1, §2, §3

[8] = target: M1 muscarinic receptors (Homo sapiens, UniProt P11229); test: Radioligand binding assay
M1 muscarinic receptors, sequence (P11229 whole entry): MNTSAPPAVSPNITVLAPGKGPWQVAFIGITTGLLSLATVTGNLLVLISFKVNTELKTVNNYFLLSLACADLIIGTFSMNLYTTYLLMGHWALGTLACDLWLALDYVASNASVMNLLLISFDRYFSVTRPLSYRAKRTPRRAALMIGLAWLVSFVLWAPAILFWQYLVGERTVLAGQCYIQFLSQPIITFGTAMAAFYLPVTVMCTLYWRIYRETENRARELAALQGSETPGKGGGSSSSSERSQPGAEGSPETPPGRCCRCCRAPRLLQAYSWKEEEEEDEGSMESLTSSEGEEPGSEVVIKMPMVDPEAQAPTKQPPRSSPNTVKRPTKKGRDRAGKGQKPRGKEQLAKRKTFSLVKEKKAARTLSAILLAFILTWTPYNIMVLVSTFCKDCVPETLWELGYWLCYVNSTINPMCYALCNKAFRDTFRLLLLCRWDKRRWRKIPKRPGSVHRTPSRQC
Description: as §1, §2, §3

Structure (SMILES): Cl.NCc1c[nH]c(=S)n1[C@H]1CCc2c(F)cc(F)cc2C1 [nepicastat, (S)-5-Aminomethyl-1-(5,7-difluoro-1,2,3,4-tetrahydronaphth-2-yl)-2,3-dihydro-2-thioxo-1H-imidazole hydrochloride]
- thyroid uptake of 123I vs placebo ([1]; 5, 40 and 100 mg): no differences from placebo
- reduction of thyroid uptake of 123I vs placebo ([1]; single 200 mg dose): significantly greater than placebo
- duration of increase in dopamine/norepinephrine ratio ([2]; 10 mg/kg, mesenteric artery): 12 h
- duration of increase in dopamine/norepinephrine ratio ([2]; 30 mg/kg, left ventricle): 24 h
- time at which increase in dopamine/norepinephrine ratio was significant ([2]; 10 or 30 mg/kg oral): 1 h
- doses inhibiting DBH ([2]; cerebral cortex of rats): 60 to 100 mg/kg/day
- dose with significant change in dopamine/norepinephrine ratio ([2]; cerebral cortex): 10 mg/kg
- oral dose with significant evidence for DBH inhibition ([2]; heart and mesenteric artery, rats): 6 mg/kg/day
- doses inhibiting DBH ([2]; left ventricle and mesenteric artery of rats): 1 to 6 mg/kg/day
- dose with significant change in dopamine/norepinephrine ratio ([2]; left ventricle): 3.0 mg/kg
- dopamine/norepinephrine ratio vs vehicle ([2]; mesenteric artery, 10 mg/kg po, 1, 2, 4, 6 and 12 hour): significantly (p<0.05) greater
- dopamine levels vs vehicle ([2]; mesenteric artery, 10 mg/kg po, 2 and 6 hr): significantly (p<0.05) higher
- norepinephrine, dopamine and ratio ([2]; mesenteric artery, 10 mg/kg po, 16 and 24 h harvest): no changes in any of the three parameters
- dose with significant change in dopamine/norepinephrine ratio ([2]; mesenteric artery): 0.3 mg/kg
- norepinephrine vs vehicle ([2]; mesenteric artery, single 10 mg/kg po, 1-24 h): significantly (p<0.05) lower than vehicle only at the 4 hr time point
- Ki [3]: > 10 µM
- Ki [4]: > 10 µM
- Ki [5]: > 10 µM
- Ki [6]: > 10 µM
- Ki [7]: > 10 µM
- Ki [8]: > 10 µM
